The test system of series [1] is collagen-induced rheumatoid arthritis in mice.
The next series has as its system rheumatoid arthritis. The conditions noted are these: RA patients; cited from earlier work.
The subject of series [2] is adjuvant-induced rheumatoid arthritis in rats. The experiment in a line: Adjuvant-induced RA (AIA) model in rats. Type of series: in vivo, Male Lewis rats. On the set-up: % Inhibition of swelling in each time interval relative to negative control: concentration or dose not given beside the values. The note with it: for Mean right hind paw volume (ml water displaced): CFA treated paw, acute phase; for Mean left hind paw volume (ml water displaced): CFA untreated paw, delayed phase. Here is the method: The ability of compounds of formula I to treat adjuvant-induced rheumatoid arthritis in rats was examined. The AIA model is one thought mainly to involve T cell-mediated mechanisms.
Male Lewis rats weighing 200±10 g were housed in groups of 6 with free access to food and water. 0.1 ml CFA (Mycobacterium tuberculosis 3 mg/ml) was injected into the subplantar region of the right bind paw of each rat on day 1 of the study.
Test substances were first dissolved in NaOH (if required) as explained above then suspended in 2% Tween 80 to a range of concentrations. 10 ml/kg was administered by oral gavage for 21 consecutive days, beginning (on day 1) 1 hour before injection of CFA. 2% Tween 80 was used as a negative control and methotrexate in 2% Tween 80 as a positive control.
Right hind paw volumes were measured by water displacement on day 0, 4 hours after the CFA injection on day 1, and on days 7, 14, and 21. Left hind paw volumes were measured by water displacement on days 0, 1, 7, 14, and 21. […] 30% or more reduction in paw volume relative to the negative control was considered significant anti-inflammatory activity. Body weight was also recorded on days 1, 7, 14, and 21. Symptoms of swelling in the front paws, tail, nose and ears were recorded on day 21.

The conditions of series [3]: in vivo; cited from earlier work.

The source of these data is US8247422B2, “Use of condensed pyrimidine derivatives for the treatment of rheumatoid arthritis” (priority 2007, dated 2012).

Turning to `CN(Cc1cnc2nc(N)nc(N)c2n1)c1ccc(C(=O)N[C@@H](CCC(=O)O)C(=O)O)cc1` [MTX, methotrexate], the “therapeutic dose as percentage of maximum tolerated dose” value in series [1] (mice, intraperitoneal, once daily for 6 weeks) is on record as “twice as high”. Also, in series [1] (mouse, in vivo), the “signs of anaemia at the end of the study (red blood cell count, FIG. 3)” value is on record as “severe signs of anaemia”. Also, the “patients who do not respond sufficiently well to treatment with methotrexate alone” value in the series on rheumatoid arthritis was “around 35%”. In addition, the “Mean right hind paw volume (ml water displaced)” value in series [2] (day 0, oral gavage) stood at 1.06 mL; in series [2] (day 1 (4 hours after CFA), oral gavage), 1.56 mL; in series [2] (day 7, oral gavage), 1.79 mL; in series [2] (day 14, oral gavage), 1.48 mL; in series [2] (day 21, oral gavage) it was 1.37 mL. For the same molecule, the “Mean left hind paw volume (ml water displaced)” value came to 1.06 mL in series [2] (day 0, oral gavage); 1.06 mL in series [2] (day 1, oral gavage); 1.08 mL in series [2] (day 7, oral gavage); 1.10 mL in series [2] (day 14, oral gavage); 1.14 mL in series [2] (day 21, oral gavage). For the same molecule, the “% Inhibition of swelling in each time interval relative to negative control” value in series [2] (left hind paw (CFA untreated), days 0-14) came to 95%; in series [2] (left hind paw (CFA untreated), days 0-21), 94%; in series [2] (right hind paw (CFA treated), days 0-1), 15%; in series [2] (right hind paw (CFA treated), days 0-7), 34%; in series [2] (right hind paw (CFA treated), days 0-14), 73%; in series [2] (right hind paw (CFA treated), days 0-21) it was 83%. In series [3], the “fraction undergoing fast elimination unchanged after uptake” value is given as “more than 80%”.
